Laboratory results from patent publication US8420595B2, “Methods for treating acute acoustic trauma” (Oklahoma Medical Research Foundation, priority 2006, dated 2013).

Tested on: AAT-induced hearing loss (six hours of 4 kHz octave band noise at 105 dB SPL)
Assay: Acute acoustic trauma (AAT) in chinchillas, hearing levels by auditory brainstem response (ABR)
Format: in vivo, chinchilla
Details: every tested frequency
Description: With reference first to Tables 1-A, 1-B and 1-C, tests were conducted using six chinchillas for each experimental group and the control group. In these tests, the animals were exposed to AAT generated by six hours of noise exposure at 4 kHz octave band noise at 105 dB SPL. Treatments using 4-OHPBN (dosages of 10, 20, 50, and 75 mg/kg), ALCAR (dosages of 0, 20, 30, and 50 mg/kg), and NAC (50, 100, and 200 mg/kg) were given four hours after the AAT by intraperitoneal injection. Hearing levels were determined by auditory brainstem response (ABR) prior to the AAT event (baseline) and at 21 days post injection.
Table 3 depicts the results provided by treatment with a preferred embodiment of the current invention. In this embodiment, the AAT treatment therapy utilized a combination of 4-OHPBN (50 mg/kg) with NAC (100 mg/kg). Treatment consisted of intraperitoneal injection of the combined 4-OHPBN and NAC four hours after the AAT event. In this instance, six chinchillas were used for each test group. The animals were exposed to an AAT event produced by six hours of noise exposure at 4 kHz octave band noise at 105 dB SPL. Hearing levels reported in Table 3 were determined using the ABR method prior to the AAT event and 21 days post AAT. […] As indicated by the * each result was determined to be statistically significant and resulting from the treatment with the combination of 4-OHPBN and NAC. Statistical analysis was carried out using a one way ANOVA procedure and Post hoc test. While the above tests were conducted at the specified dosages, effective results should be realized at dosages between about 5 mg/kg and about 300 mg/kg for NAC and about 5 mg/kg and about 150 mg/kg for 4-OHPBN when NAC and 4-OHPBN are used in combination.
Table 4 depicts the results provided by treatment with another preferred embodiment of the current invention. The test for this embodiment utilized three test groups consisting of six chinchillas each. The chinchillas were exposed to an AAT event generated by a 105 dB narrow-band noise centered at 4 kHz for 6 hours. In this embodiment, the AAT treatment therapy utilized a combination of 4-OHPBN (20 mg/kg) with NAC (50 mg/kg) and ALCAR (20 mg/kg). Treatment consisted of intraperitoneal injection of the combined 4-OHPBN, NAC and ALCAR beginning four hours after noise exposure with injections repeated twice daily for the next two days. The control group was injected with carrier solution. Hearing levels reported in Table 4 were determined using the ABR method prior to the AAT event, immediately after the AAT event and 21 days after the AAT event.
Mean ABR threshold shifts were obtained and statistically analyzed using a two-way ANOVA procedure.

SMILES | p (two way ANOVA and Post hoc test) vs control, ABR hearing level (ALCAR 30 mg/kg i.p. four hours after AAT) | p (two way ANOVA and Post hoc test) vs control, ABR hearing level (ALCAR 50 mg/kg i.p. four hours after AAT) | p (two way ANOVA and Post hoc test) vs control, ABR hearing level (NAC 100 mg/kg i.p. four hours after AAT) | p (two way ANOVA and Post hoc test) vs control, ABR hearing level (NAC 200 mg/kg i.p. four hours after AAT)
CC(=O)O[C@H](CC(=O)[O-])C[N+](C)(C)C [ALCAR, Acetyl-L-Carnitine] | < 0.05 | < 0.05 | – | –
CC(=O)N[C@@H](CS)C(=O)O [NAC, N-acetylcysteine] | – | – | < 0.05 | < 0.05
